In patent US5227398A, “Benzodioxole derivatives and hepatopathy improvers comprising the same” (Tsumura & Co., priority 1990, dated 1993):
Counter-ions that a name gives are not always drawn.

Experiments:
[1] = system: CCl4 -induced hepatopath rats; assay: Hepatopathy improving effects for CCl4-induced hepatopath rats (inhibition to the increase of transaminase in serum); type: in vivo; conditions: SD male rats, 100 mg/kg oral, 30 min before CCl4 (diluted fourfold with olive oil, peritoneally, 4 mg/kg), blood after 24 hours; for Serum GPT: Control 1 (no CCl4) 20, Control 2 (CCl4 alone) 1071; for Serum GOT: Control 1 (no CCl4) 89, Control 2 (CCl4 alone) 7719
Experimental: The hepatopathy improving effects of the compounds (I') of this invention for CCl4 -induced hepatopath rats were investigated by using, as an index, the inhibition to the increase of transaminase in serum. After SD male rats (7 weeks old; Japanese Charles River) had been fasted for 24 hours, test drugs were orally administered at 100 mg/kg. Thirty minutes later, a CCl4 solution (diluted fourfold with olive oil) was peritoneally administered at 4 mg/kg. The rats were fasted further for 24 hours and then anesthetized with 1 ml/kg of sodium pentobarbital. After a blood sample was collected from the descending abdominal aorta of each rat, the liver was enucleated and its wet weight was measured. Further, the GOT and GPT of a serum, which had been obtained from the blood sample so collected, were measured by an automatic chemical analyzer ("TBA-380", trade name; manufactured by Toshiba Corp.). Thick serums were measured after dilution in distilled water.
Note: Control 1 is a group not administered with CCl4 while Control
is a group administered with CCl4 alone.

[2] = system: hepatopath; conditions: previously found by the present assignee; cited from earlier work

| SMILES | Serum GPT [1] [U/1] | Serum GOT [1] [U/1] | improvement of GPT and GOT value of a hepatopath [2] |
| --- | --- | --- | --- |
| CSCC(N)C(=O)Nc1ccc2c(c1)OCO2 (stereo not shown) [Example 5, [(3,4-methylenedioxy)aniline]-S-methylcysteinamide hydrochloride] | 57 | 391 |  |
| CC(C)OC(=O)C(C(=O)c1ccc2c(c1)OCO2)=C1SC=CS1 [Example 2, isopropyl 2-(1,3-dithiol-2-ylidene)-3-[3,4-(methylenedioxy)phenyl]-3-oxopropionate] | 100 | 563 |  |
| COC(=O)CNc1ccc2c(c1)OCO2 [Synthesis Example 2, methyl 2-[N-(3,4-methylenedioxyphenyl)amino]acetate] | 310 | 1400 |  |
| c1csc(=Nc2ccc3c(c2)OCO3)s1 [Example 1, N,N-(1,3-dithiol-2-ylidene)-1,3-benzodioxol-5-amine] | 74 | 432 |  |
| CSC(=S)Nc1ccc2c(c1)OCO2 [Synthesis Example 1, methyl N-(3,4-methylenedioxyphenyl)dithiocarbamate] | 230 | 1027 |  |
| COc1cc2c(c(OC)c1OC)-c1c(cc3c(c1OC)OCO3)CC(C)C(C)(O)C2 (stereo not shown) [gomisin A] |  |  | can promptly improve the GPT and GOT value of a hepatopath |
| CC(C)OC(=O)C(=C1SC=CS1)c1ccc2c(c1)OCO2 [Example 3, isopropyl 2-(1,3-dithiol-2-ylidene)-2-[3,4-(methylenedioxy)phenyl]acetate] | 557 | 2573 |  |
